Assay results taken from ChEMBL document CHEMBL5223126, “Development of selective FGFR1 degraders using a Rapid synthesis of proteolysis targeting Chimera (Rapid-TAC) platform” (Bioorg Med Chem Lett, 2022).
Values belong to the compound of their own block, whether it stands above or below them. The source made the active and inactive calls. No cut-off for these calls is given here.

How the values were obtained:
[1] = molecular target: von Hippel-Lindau disease tumor suppressor/Fibroblast growth factor receptor 1 (Homo sapiens) (UniProt P11362+P40337); experiment: PROTAC activity at FGFR1/VHL in human MCF7 cells assessed as FGFR1 degradation at 100 nM incubated for 6 hrs by Western blot analysis; type: cell-based
[2] = molecular target: T1, Protein cereblon/Fibroblast growth factor receptor 1 (Homo sapiens) (UniProt P11362+Q96SW2); experiment: PROTAC activity at FGFR1/CRBN in human NCI-H1581 cells assessed as FGFR1 degradation at 0.1 to 10 uM incubated for 6 hrs by Western blot analysis; type: cell-based; settings: dose 0.1-10 µM
[3] = molecular target: T1, Protein cereblon/Fibroblast growth factor receptor 1 (Homo sapiens); experiment: PROTAC activity at FGFR1/CRBN in human MCF7 cells assessed as FGFR1 degradation at 0.1 to 10 uM incubated for 6 hrs by Western blot analysis; type: cell-based; settings: dose 0.1-10 µM
[4] = molecular target: T1, Protein cereblon/Fibroblast growth factor receptor 1 (Homo sapiens); experiment: PROTAC activity at FGFR1/CRBN in human DMS-114 cells assessed as FGFR1 degradation at 0.1 to 10 uM incubated for 6 hrs by Western blot analysis; type: cell-based; settings: dose 0.1-10 µM
DMS-114 = experiment: Antiproliferative activity against human DMS-114 cells assessed as inhibition of cell growth incubated for 120 hrs by MTT assay; type: functional, cell-based; settings: DMS-114, 120 h
NCI-H1581 = experiment: Antiproliferative activity against human NCI-H1581 cells assessed as inhibition of cell growth incubated for 120 hrs by MTT assay; type: functional, cell-based; settings: NCI-H1581, 120 h
[5] = molecular target: T1, Protein cereblon/Fibroblast growth factor receptor 1 (Homo sapiens); experiment: PROTAC activity at FGFR1/CRBN in human MCF7 cells assessed as FGFR1 degradation at 100 nM incubated for 6 hrs by Western blot analysis; type: cell-based
[6] = molecular target: Protein cereblon/Fibroblast growth factor receptor 4 (Homo sapiens) (UniProt P22455+Q96SW2); experiment: PROTAC activity at FGFR4/CRBN in human MCF7 cells assessed as FGFR4 degradation at 0.1 to 10 uM incubated for 6 hrs by Western blot analysis; type: cell-based; settings: dose 0.1-10 µM
[7] = molecular target: Protein cereblon/Fibroblast growth factor receptor 2 (Homo sapiens) (UniProt P21802+Q96SW2); experiment: PROTAC activity at FGFR2/CRBN in human MCF7 cells assessed as FGFR2 degradation at 0.1 to 10 uM incubated for 6 hrs by Western blot analysis; type: cell-based; settings: dose 0.1-10 µM
[8] = molecular target: Protein cereblon/Fibroblast growth factor receptor 3 (Homo sapiens) (UniProt P22607+Q96SW2); experiment: PROTAC activity at FGFR3/CRBN in human MCF7 cells assessed as FGFR3 degradation at 0.1 to 10 uM incubated for 6 hrs by Western blot analysis; type: cell-based; settings: dose 0.1-10 µM
Protein cereblon/Fibroblast growth factor receptor 3 (Homo sapiens), sequence (P22607 whole entry, looked up): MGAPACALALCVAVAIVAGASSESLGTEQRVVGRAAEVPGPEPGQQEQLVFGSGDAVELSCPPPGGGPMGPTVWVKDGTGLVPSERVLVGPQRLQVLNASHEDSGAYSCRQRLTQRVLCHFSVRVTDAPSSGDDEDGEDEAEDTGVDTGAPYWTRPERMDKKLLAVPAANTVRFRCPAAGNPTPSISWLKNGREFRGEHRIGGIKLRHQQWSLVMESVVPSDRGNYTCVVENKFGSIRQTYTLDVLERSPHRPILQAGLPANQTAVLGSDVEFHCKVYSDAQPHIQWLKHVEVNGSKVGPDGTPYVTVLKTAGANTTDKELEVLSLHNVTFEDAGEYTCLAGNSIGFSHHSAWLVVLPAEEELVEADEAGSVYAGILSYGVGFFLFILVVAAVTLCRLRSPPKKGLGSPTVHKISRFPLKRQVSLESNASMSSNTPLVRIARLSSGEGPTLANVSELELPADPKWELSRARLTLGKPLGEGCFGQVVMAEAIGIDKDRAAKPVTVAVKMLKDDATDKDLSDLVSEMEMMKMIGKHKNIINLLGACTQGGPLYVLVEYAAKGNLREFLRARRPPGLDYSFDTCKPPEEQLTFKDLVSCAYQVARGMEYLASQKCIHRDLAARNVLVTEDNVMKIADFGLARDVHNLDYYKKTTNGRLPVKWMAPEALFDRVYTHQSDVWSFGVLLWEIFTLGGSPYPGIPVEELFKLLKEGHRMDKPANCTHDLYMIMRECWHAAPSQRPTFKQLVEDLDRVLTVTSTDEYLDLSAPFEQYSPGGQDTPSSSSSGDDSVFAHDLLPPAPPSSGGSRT
Protein cereblon/Fibroblast growth factor receptor 3 (Homo sapiens), sequence (Q96SW2 whole entry, looked up): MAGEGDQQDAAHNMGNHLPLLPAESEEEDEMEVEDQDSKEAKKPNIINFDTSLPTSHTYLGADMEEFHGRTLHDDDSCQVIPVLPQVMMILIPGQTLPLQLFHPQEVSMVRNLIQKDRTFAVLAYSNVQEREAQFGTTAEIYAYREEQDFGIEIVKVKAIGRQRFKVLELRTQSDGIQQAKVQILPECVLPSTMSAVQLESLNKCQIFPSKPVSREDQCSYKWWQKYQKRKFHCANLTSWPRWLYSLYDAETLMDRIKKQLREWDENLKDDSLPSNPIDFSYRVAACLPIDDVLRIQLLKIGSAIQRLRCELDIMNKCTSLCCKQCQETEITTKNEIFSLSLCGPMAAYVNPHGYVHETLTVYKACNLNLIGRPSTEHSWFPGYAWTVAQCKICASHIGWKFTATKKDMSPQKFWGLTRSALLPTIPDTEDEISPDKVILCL

T1 sequence (P11362 whole entry, looked up): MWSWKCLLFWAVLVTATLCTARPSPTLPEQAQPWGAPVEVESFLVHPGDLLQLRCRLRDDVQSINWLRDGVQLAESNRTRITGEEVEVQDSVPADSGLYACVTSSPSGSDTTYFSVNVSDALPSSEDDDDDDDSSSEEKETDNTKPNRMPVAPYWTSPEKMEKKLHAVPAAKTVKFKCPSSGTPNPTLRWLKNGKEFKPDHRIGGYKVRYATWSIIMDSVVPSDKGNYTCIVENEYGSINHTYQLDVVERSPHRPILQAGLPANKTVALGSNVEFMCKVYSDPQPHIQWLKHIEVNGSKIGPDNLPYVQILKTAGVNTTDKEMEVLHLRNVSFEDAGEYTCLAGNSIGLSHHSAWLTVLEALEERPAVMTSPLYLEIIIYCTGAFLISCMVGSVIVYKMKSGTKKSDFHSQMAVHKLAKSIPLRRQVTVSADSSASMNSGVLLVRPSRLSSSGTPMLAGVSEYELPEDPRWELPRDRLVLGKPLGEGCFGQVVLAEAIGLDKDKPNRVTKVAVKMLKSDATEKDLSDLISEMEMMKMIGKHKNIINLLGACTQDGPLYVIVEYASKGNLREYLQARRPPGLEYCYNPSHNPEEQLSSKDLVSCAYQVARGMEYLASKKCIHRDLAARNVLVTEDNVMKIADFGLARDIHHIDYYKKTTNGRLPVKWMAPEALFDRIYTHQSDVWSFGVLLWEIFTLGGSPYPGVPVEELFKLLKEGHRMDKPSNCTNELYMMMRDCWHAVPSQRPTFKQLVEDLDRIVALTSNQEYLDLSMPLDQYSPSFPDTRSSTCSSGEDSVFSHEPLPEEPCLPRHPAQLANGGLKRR
T1 sequence (Q96SW2 whole entry, looked up): as the sequence (Q96SW2 whole entry, looked up) above
von Hippel-Lindau disease tumor suppressor/Fibroblast growth factor receptor 1 (Homo sapiens), sequence (P11362 22-822 limits assumed): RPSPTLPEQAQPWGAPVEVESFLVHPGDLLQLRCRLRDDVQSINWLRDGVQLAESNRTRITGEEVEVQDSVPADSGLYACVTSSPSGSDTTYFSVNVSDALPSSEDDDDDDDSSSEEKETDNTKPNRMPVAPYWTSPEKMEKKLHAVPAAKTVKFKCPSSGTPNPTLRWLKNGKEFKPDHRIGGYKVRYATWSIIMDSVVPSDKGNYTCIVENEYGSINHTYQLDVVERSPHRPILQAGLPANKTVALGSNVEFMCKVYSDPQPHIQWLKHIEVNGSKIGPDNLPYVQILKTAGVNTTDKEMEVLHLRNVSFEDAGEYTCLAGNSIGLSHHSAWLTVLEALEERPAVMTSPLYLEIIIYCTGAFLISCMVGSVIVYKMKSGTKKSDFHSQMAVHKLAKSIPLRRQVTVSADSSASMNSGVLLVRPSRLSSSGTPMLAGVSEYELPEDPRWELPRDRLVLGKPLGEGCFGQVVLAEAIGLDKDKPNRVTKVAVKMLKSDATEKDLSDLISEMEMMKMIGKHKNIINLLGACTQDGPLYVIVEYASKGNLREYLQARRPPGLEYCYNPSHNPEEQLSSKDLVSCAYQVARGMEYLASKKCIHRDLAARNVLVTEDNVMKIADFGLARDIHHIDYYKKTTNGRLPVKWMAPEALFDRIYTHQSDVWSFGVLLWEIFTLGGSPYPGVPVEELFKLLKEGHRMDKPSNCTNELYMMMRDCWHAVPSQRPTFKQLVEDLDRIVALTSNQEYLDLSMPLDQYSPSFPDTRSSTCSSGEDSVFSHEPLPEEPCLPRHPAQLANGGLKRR
von Hippel-Lindau disease tumor suppressor/Fibroblast growth factor receptor 1 (Homo sapiens), sequence (P40337 whole entry partner): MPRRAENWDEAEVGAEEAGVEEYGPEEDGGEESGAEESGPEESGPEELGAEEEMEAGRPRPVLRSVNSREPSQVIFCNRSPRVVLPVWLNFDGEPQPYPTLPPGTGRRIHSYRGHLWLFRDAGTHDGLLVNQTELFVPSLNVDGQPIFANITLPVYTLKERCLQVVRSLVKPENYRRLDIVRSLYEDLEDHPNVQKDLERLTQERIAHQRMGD
Protein cereblon/Fibroblast growth factor receptor 4 (Homo sapiens), sequence (P22455 whole entry, looked up): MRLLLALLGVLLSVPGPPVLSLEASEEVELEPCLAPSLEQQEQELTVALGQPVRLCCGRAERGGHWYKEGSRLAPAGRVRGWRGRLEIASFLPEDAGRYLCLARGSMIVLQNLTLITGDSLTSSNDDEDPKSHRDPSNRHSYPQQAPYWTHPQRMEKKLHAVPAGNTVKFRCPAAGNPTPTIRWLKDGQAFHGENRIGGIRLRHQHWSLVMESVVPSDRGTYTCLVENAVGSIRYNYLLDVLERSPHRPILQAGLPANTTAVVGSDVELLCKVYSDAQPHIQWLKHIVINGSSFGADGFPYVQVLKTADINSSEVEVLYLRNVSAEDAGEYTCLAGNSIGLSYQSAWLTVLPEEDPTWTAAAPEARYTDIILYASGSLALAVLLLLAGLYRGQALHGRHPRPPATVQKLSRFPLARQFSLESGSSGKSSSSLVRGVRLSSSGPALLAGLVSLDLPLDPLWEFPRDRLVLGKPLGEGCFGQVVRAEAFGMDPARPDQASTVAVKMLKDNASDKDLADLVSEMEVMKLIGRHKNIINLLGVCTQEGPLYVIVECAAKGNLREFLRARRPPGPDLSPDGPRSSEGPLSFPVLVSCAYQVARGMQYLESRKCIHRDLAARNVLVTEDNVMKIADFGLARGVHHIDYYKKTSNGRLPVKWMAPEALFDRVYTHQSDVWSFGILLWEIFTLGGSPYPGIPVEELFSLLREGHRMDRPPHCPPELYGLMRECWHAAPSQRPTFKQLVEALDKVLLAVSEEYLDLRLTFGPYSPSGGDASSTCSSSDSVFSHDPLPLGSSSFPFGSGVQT
Protein cereblon/Fibroblast growth factor receptor 4 (Homo sapiens), sequence (Q96SW2 whole entry, looked up): as the sequence (Q96SW2 whole entry, looked up) above
Protein cereblon/Fibroblast growth factor receptor 2 (Homo sapiens), sequence (P21802 22-821 limits assumed): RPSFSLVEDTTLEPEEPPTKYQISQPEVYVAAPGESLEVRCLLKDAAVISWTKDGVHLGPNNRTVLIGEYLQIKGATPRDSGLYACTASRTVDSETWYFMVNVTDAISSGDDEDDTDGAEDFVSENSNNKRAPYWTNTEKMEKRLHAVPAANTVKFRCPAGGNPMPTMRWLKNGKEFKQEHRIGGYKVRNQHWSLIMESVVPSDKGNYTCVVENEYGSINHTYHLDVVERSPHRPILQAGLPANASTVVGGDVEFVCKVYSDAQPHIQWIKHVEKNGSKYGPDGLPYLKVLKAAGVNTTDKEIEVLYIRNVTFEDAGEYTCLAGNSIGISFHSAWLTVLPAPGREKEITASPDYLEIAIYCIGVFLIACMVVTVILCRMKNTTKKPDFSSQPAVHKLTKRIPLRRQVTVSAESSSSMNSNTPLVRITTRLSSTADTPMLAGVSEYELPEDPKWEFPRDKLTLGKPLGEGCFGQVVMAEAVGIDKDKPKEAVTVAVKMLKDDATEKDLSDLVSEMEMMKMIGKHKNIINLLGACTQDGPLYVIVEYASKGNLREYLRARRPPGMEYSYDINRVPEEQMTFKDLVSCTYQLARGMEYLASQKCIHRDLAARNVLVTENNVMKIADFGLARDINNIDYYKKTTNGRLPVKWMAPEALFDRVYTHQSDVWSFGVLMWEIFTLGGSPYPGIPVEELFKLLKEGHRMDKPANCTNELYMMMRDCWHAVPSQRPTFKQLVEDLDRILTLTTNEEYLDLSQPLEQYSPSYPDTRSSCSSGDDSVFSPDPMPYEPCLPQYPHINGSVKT
Protein cereblon/Fibroblast growth factor receptor 2 (Homo sapiens), sequence (Q96SW2 whole entry partner): as the sequence (Q96SW2 whole entry, looked up) above

Compound: COc1cc(CCc2cc(NC(=O)c3ccc(N4C[C@@H](C)N(CC(=O)N/N=C/c5ccc(OCCOCCOCC(=O)NCC#Cc6cccc7c6CN(C6CCC(=O)NC6=O)C7=O)cc5)[C@@H](C)C4)cc3)n[nH]2)cc(OC)c1 (stereo not given in full)
Activity [5]: Active

Compound: COc1cc(CCc2cc(NC(=O)c3ccc(N4C[C@@H](C)N(CC(=O)N/N=C/c5ccc(OCCOCCOCCOCCOCCOCC(=O)NCC#Cc6cccc7c6CN(C6CCC(=O)NC6=O)C7=O)cc5)[C@@H](C)C4)cc3)n[nH]2)cc(OC)c1 (stereo not given in full)
Activity [6]: inactive | Activity [7]: inactive | Activity [3]: Active | Activity [8]: inactive

Compound: COc1cc(CCc2cc(NC(=O)c3ccc(N4C[C@@H](C)N(CC(=O)N/N=C/c5ccc(OCCCCC(=O)NCC#Cc6cccc7c6CN(C6CCC(=O)NC6=O)C7=O)cc5)[C@@H](C)C4)cc3)n[nH]2)cc(OC)c1 (stereo not given in full)
Activity [5]: Active

Compound: COc1cc(CCc2cc(NC(=O)c3ccc(N4C[C@@H](C)N(CC(=O)N/N=C/c5ccc(OCCOCCOCCOCC(=O)NCC#Cc6cccc7c6CN(C6CCC(=O)NC6=O)C7=O)cc5)[C@@H](C)C4)cc3)n[nH]2)cc(OC)c1 (stereo not given in full)
Activity [6]: inactive | Activity [7]: inactive | Activity [3]: Active | Activity [8]: inactive

Compound: COc1cc(CCc2cc(NC(=O)c3ccc(N4C[C@@H](C)N(CC(=O)N/N=C/c5ccc(OCCOCC(=O)NCC#Cc6cccc7c6CN(C6CCC(=O)NC6=O)C7=O)cc5)[C@@H](C)C4)cc3)n[nH]2)cc(OC)c1 (stereo not given in full)
Activity [6]: inactive | Activity [7]: inactive | Activity [3]: Active | Activity [8]: inactive

Compound: COc1cc(CCc2cc(NC(=O)c3ccc(N4C[C@@H](C)N[C@@H](C)C4)cc3)n[nH]2)cc(OC)c1 [FEXAGRATINIB]
IC50 (DMS-114): 14 nM | IC50 (NCI-H1581): 4 nM

Continued, in another order:

Activity [1]: Active
Compound: COc1cc(CCc2cc(NC(=O)c3ccc(N4C[C@@H](C)N(CC(=O)N/N=C\c5ccc(OCCCCC(=O)N[C@H](C(=O)N6C[C@H](O)C[C@H]6C(=O)N[C@@H](C)c6ccc(-c7scnc7C)cc6)C(C)(C)C)cc5)[C@@H](C)C4)cc3)n[nH]2)cc(OC)c1

Activity [2]: inactive | Activity [3]: Active | Activity [4]: inactive
Compound: COc1cc(CCc2cc(NC(=O)c3ccc(N4C[C@@H](C)N(CC(=O)NCCc5ccc(OCCOCCOCC(=O)NC#Cc6cccc7c6CN(C6CCC(=O)NC6=O)C7=O)cc5)[C@@H](C)C4)cc3)n[nH]2)cc(OC)c1 (stereo not given in full)

Activity [1]: Active
Compound: COc1cc(CCc2cc(NC(=O)c3ccc(N4C[C@@H](C)N(CC(=O)N/N=C/c5ccc(OCCOCCOCCOCC(=O)N[C@H](C(=O)N6C[C@H](O)C[C@H]6C(=O)N[C@@H](C)c6ccc(-c7scnc7C)cc6)C(C)(C)C)cc5)[C@@H](C)C4)cc3)n[nH]2)cc(OC)c1

IC50 (NCI-H1581): 160 nM
Compound: COc1cc(CCc2cc(NC(=O)c3ccc(N4C[C@@H](C)N(CC(=O)NCCc5ccc(OCC(=O)N[C@H](C(=O)N6C[C@H](O)C[C@H]6C(=O)N[C@@H](C)c6ccc(-c7scnc7C)cc6)C(C)(C)C)cc5)[C@@H](C)C4)cc3)n[nH]2)cc(OC)c1
IC50 (DMS-114): 139 nM

Activity [1]: Active
Compound: COc1cc(CCc2cc(NC(=O)c3ccc(N4C[C@@H](C)N(CC(=O)N/N=C/c5ccc(OCCOCCOCCOCCOCC(=O)N[C@H](C(=O)N6C[C@H](O)C[C@H]6C(=O)N[C@@H](C)c6ccc(-c7scnc7C)cc6)C(C)(C)C)cc5)[C@@H](C)C4)cc3)n[nH]2)cc(OC)c1

Activity [1]: Active
Compound: COc1cc(CCc2cc(NC(=O)c3ccc(N4C[C@@H](C)N(CC(=O)N/N=C\c5ccc(OCC(=O)N[C@H](C(=O)N6C[C@H](O)C[C@H]6C(=O)N[C@@H](C)c6ccc(-c7scnc7C)cc6)C(C)(C)C)cc5)[C@@H](C)C4)cc3)n[nH]2)cc(OC)c1
